According to PMC12458691 (Inorganic Chemistry, 2025):
Read-outs that look alike come from different tables or passages of the source. Marks after values point to notes of the source that are not given here. Values belong to the compound of their own block, whether it stands above or below them.

What was measured:
[1] = set-up: method as in number not given; settings: Mn2+ complexes of the ligands, recently reported; ref number not given; cited from earlier work
[2] = Protonation constants by potentiometric and UV–vis titrations; assay type: physicochemical
Description: (§1) Caution! Perchlorate salts are explosive and should be handled with care; such compounds should never be heated as solids. The potentiometric titrations were carried out at 298.1 ± 0.1 K using 0.15 M NaClO4 as the supporting electrolyte. The experimental procedure (buret, potentiometer, cell, stirrer, microcomputer, etc.) has been fully described elsewhere. The acquisition of raw potentiometric data was performed with the computer program PASAT. The reference electrode was a Ag/AgCl electrode in a saturated KCl solution. The glass electrode was calibrated as a hydrogen-ion concentration probe by titration of previously standardized amounts of HCl with CO2-free NaOH solutions, and the equivalent point was determined by Gran’s method, , which gives the standard potential, E̊, and the ionic product of water (pK w = 13.73(1)). The computer program […] was used to calculate the protonation and stability constants. The HYSS program was used to obtain the distribution diagrams. The pH range investigated by using this technique was 2.5–11.0, in accordance with the linear response range of glass electrodes. The solutions were extensively deaerated with an argon flow before the potentiometric runs. A moderate argon flow was maintained throughout the course of the titrations. The different titration curves for each system (at least two) were treated either as a single set or as separate curves without significant variations in the values of the stability constants. Finally, the sets of data were merged and treated simultaneously to give the final stability constants.
The solvents used were of spectroscopic or equivalent grade. Water was twice distilled and passed through a Millipore apparatus. The pH values were measured with a Metrohm 713 pH meter, and adjustments of the hydrogen-ion concentration of the solutions were made with diluted HCl and NaOH solutions. UV–vis absorption spectra were recorded between pH 2 and 11 with an Agilent 8453 spectrometer. The resulting data from the titrations were used to calculate the third protonation constant of ^ COOMe PyNMe 3 . For this, the HypSpec program was employed, considering all of the absorbance intensities in the range of 250 and 350 nm.

[3] = Stability constants and speciation of Cu2+ complexes by potentiometric measurements; assay type: physicochemical; settings: for pCu: calculated for theoretical solutions
Description: as §1

[4] = Stability constants and speciation of Fe2+ complexes by potentiometric measurements; assay type: physicochemical; settings: for pFe: calculated for theoretical solutions
Description: as §1

[5] = McCord–Fridovich nitroblue tetrazolium (NBT) SOD activity assay; assay type: biochemical
From the text: First, the SOD activity of the complexes was studied by means of the nitroblue tetrazolium (NBT) method, also known as McCord–Fridovich method. This is a widely used, indirect method based on the side production of superoxide anions by the xanthine oxidase enzyme and their capture by the NBT dye to give formazan. − A compound displaying SOD activity decreases the flow of superoxide radical anions and, thereby, the production of formazan (see the representation of the fitting of the data in Figures and S13–S16). Thus, by following the absorption band of formazan at 560 nm, the SOD activity of the studied mimetic can be quantified. Blank experiments were recorded with the ligands alone without observing any effect. The values of IC50, defined as the amount of the compound necessary for achieving 50% inhibition of NBT reduction to formazan by the superoxide anion, together with the catalytic constants (k cat), were obtained as indicated in the Experimental Section and are summarized in Table .
The SOD-like activity was determined by using the nitroblue tetrazolium (NBT) method, which despite its limitations is frequently used to estimate the activity of SOD mimetics. − The assays were carried out in a pH = 7.4 50 mM HEPES buffer at 298 K. The xanthine (2.2 × 10^–4 M) and xanthine oxidase (ca. 3 UN) system was used to generate a reproducible and constant flux of superoxide anions. […] Data in the absence of the complex were used as a reference. […] The percentage of inhibition of the NBT reduction to formazan was used as a measure of the SOD activity of the compounds. The concentration of the complex required to yield 50% inhibition of NBT reduction (IC50) was determined from a plot of percentage inhibition versus complex concentration. The IC50 data were calculated from the mean values of (at least) three independent measurements. The catalytic constant was calculated from the IC50 using the equation k cat = k NBT[NBT]/IC50 where k NBT = (5.94 ± 0.5) × 10^4 M^–1 s^–1. −

[6] = Catalase activity by pressure monitoring of evolved O2; assay type: biochemical; settings: entry 8: no ligand, [Fe2+]0 2.14 × 10^–4 M as Fe(SO4), [H2O2]0 3.4 × 10^–2 M, 25°C, pH 7.5
Description: The quantification of the evolved oxygen is frequently used to evaluate the catalase activity. − In this work, the amount of gas evolved during the reaction of the Fe^2+–^ COOH PyNMe 3 complex with hydrogen peroxide was monitored by measuring the pressure changes over time using a previously calibrated Man on the Moon X104 gas evolution kit. For that purpose, 2.5 mL of an aqueous solution of the complex at concentrations of (0.5–2.7) × 10^–4 M buffered at pH 7.5 with TRIS (50 mM) was prepared inside a glovebox, placed in a closed reaction vessel, and purged with nitrogen. Once the pressure readings were stabilized, 0.2–1.2 mL of a 0.12 M aqueous solution of H2O2 (also prepared in TRIS 50 mM at pH 7.4) was added, and the pressure was then measured as a function of time. A blank experiment was conducted with a complex-free solution of a 50 mM TRIS solution with hydrogen peroxide at pH 7.4, where no O2 evolution was detected. The same result was obtained for blank experiments, including also the ligand but not the metal ion or the free metal ion (i.e., Fe^2+, Fe^3+, or Cu^2+) in the absence of the ligand (see Entries 8–12 in Table ). […] Nevertheless, the possible formation of small amounts of CO2, which would introduce a small error in the estimation of evolved O2, cannot be completely ruled out.

[7] = Table S2, 0.15 M NaClO4, 298.1 K, ref 1 of the SI, cited from earlier work
[8] = Table S3, 0.15 M NaClO4, 298.1 K; ref 1 of the SI; cited from earlier work
[9] = set-up: method as in earlier work; settings: Table S3, 0.15 M NaClO4, 298.1 K; ref 1 of the SI; cited from earlier work
[10] = set-up: method as in footnotes c–f, numbers not given; settings: Cu2+ complexes/salt/enzyme, literature data for comparison; ref footnotes c–f, numbers not given; cited from earlier work
[11] = 0.15 M NaClO4, 298.1 K, potentiometry

Compound: COc1cc2nc(c1)CNCCNCCNC2 [^ MeO PyNH 3]
TON of catalase activity of the Mn2+ complexes [1]: 25–37

Compound: Oc1cc2nc(c1)CNCCNCCNC2 [^ OH PyNH 3]
TON of catalase activity of the Mn2+ complexes [1]: 25–37

log K, H2L^(2+x)++H^+⇄H3L^(3+x)+ (stepwise protonation constant) ([2]; 0.15 M NaClO4, 298.1 K, obtained by UV–vis spectroscopic titration): 2.48(1) ^f
log K, HL^(1+x)++H^+⇄H2L^(2+x)+ (stepwise protonation constant) [2, 11]: 7.03(1)
log K, L^x+H^+⇄HL^(1+x)+ (stepwise protonation constant) [2, 11]: 10.57(2)
three protonation constants, span from first to third ([2]; potentiometric titrations (third constant of COOMePyNMe3 by UV)): 10.57 to 2.48 logarithmic units
log K, Cu+L⇄[CuL] (stability constant) ([3]; 0.15 M NaClO4, 298.1 K): 16.84(3)
log K, [CuL]+H2O⇄[CuL(OH)]+H ([3]; 0.15 M NaClO4, 298.1 K): –8.26(4)
pCu ([3]; pH 7.4, [L]=[M]=1 µM): 9.79
pCu ([3]; pH 7.4, [L]=[M]=10 µM): 9.29
log K, Fe+L⇄[FeL] (stability constant) ([4]; 0.15 M NaClO4, 298.1 K): 9.46(2)
log K, [FeL]+H2O⇄[FeL(OH)]+H ([4]; 0.15 M NaClO4, 298.1 K): –8.18(5)
pFe ([4]; pH 7.4, [L]=[M]=1 µM): 6.27
pFe ([4]; pH 7.4, [L]=[M]=10 µM): 5.66
Compound: COC(=O)c1cc2nc(c1)CN(C)CCN(C)CCN(C)C2 [^ COOMe PyNMe 3]
SOD activity of the Fe2+ complexes (in words) ([5]; NBT method, under the conditions of this study): negligible SOD activity
k cat (SOD catalytic constant) ([5]; metal complexes, calculated from IC50 as kNBT[NBT]/IC50, pH 7.4, [NBT] = 59 μM): 40.3 10^6 M^–1 s^–1
increase in the SOD catalytic constant of the Cu2+ complex on functionalization of the pyridine ([5]; relative to Cu2+ complexes of HPyNH3 or HPyNMe3): 34 fold

TON (moles of H2O2 decomposed by one mol of metal ions) [6]: 0
nO2(g) [6]: 0 mol
Compound: O=S(=O)([O-])[O-].[Fe+2] [Fe(SO4)]

Compound: CN1CCN(C)Cc2cccc(n2)CN(C)CC1 [^ H PyNMe 3]
log K, H + HL ⇄ H2L (stepwise protonation constant) ([7]; potentiometry): 7.37(1)
log K, H + L ⇄ HL (stepwise protonation constant) ([7]; potentiometry): 10.88(1)
log β (∑log K, protonation) [7]: 18.25
log K, [CuL(OH)]+ + H2O ⇄ [CuL(OH)2] + H+ [8]: -11.31(8)
log K, [CuL]2+ + H2O ⇄ [CuL(OH)]+ + H+ [8]: -8.53(4)
log K, Fe2+ + L ⇄ [FeL]2+ (stability constant) [9]: 9.72(2)
log K, [FeL(OH)]+ + H2O ⇄ [FeL(OH)2] + H+ [9]: -10.58(5)
log K, [FeL]2+ + H2O ⇄ [FeL(OH)] + H+ [9]: -9.08(4)
k cat (SOD catalytic constant) [10]: 1.2 10^6 M^–1 s^–1
